Results published in patent US10213451B2, “Methods and compounds for modulating the secretion or expression of adhesion proteins or angiopoietins of cells” (PACIFIC ARROW LIMITED, priority 2004, dated 2019).

Legend:
Format in all cases: cell-based, human
[1] = test system: collagen expression in ES2 cells; assay: Microarray gene expression, Table 5
Protocol: (§1) Y/D is the ratio (in folds) of gene expression in cells treated with compound Y as compared with those of the no drug control (D),
(§2) YM/D is the ratio of gene expression in cells treated with compound YM (ACH-Y, Y without sugar moiety) compared with those of the no drug control (D)
(§3) Cell culture and drug-treatment.: ES2 cells were seeded in a T-25 flask with 4.5 million cells per flask for 24 hours. Cell culture was replaced with fresh medium with xanifolia-Y (Y) or DMSO no drug control (D) for 24 hours. Cells were then harvested for RNA isolation. Three experiments were done.
(§4) RNA extraction, labeling, hybridization, and data analysis. RNA was extracted from tumor cells using the Qiagen RNeasy Kit. RNA quality and quantity was checked by the Agilent BioAnalyzer and the NanoDrop® ND-1000 spectrophotometer respectively before further manipulation. The first and second cDNA strands were synthesized from 20 ng of total RNA using the Affymetrix T7 oligo(dT) primer protocol and kit for the two-cycle amplification. To produce amplified biotin-labeled-cRNA, the cDNA was […] by in vitro transcription using the MegaScript kit from Ambion. 15.0 μg of the labeled cRNA was fragmented and re-checked for concentration using the NanoDrop® ND-1000 spectrophotometer. A hybridization cocktail containing Affymetrix spike-in controls and fragmented labeled cRNA was loaded onto the Human U133 Plus 2.0 GeneChip® oligonucleotide array. The Affymetrix array (Affymetrix, Inc. Santa Clara, Calif.) is comprised of over 1,300,000 unique oligonucleotide features that represent greater than 38,500 well-substantiated human genes. The array was hybridized for 16 hours at 45° C. with rotation at 60 rpm then washed and stained with a strepavidin, R-phycoerythrin conjugate stain on the Affymetrix Fluidicis Station 450. Signal amplification was done using biotinylated antistreptavidin. The arrays were scanned using the GeneChip® 3000 confocal laser scanner with autoloader. The images were analyzed and quality control metrics recorded using Affymetrix GCOS software version 1.4. Lastly, the expression value for each gene was calculated using dChip PM-only model based or Plier algorithm.
(§5) Pairwise comparisons were made as follows: Treated vs. Control (Y vs. D), Modified Drug vs Control (YM/ACY-H vs. D) and Treated vs. Modified Drug (Y vs. YM/ACH-Y) Cel files analyzed using the Bioconductor package of R Statistical programming. Limma analysis generated a reasonable number of changing genes between the samples.
(§6) The raw data in the .CEL files were normalized by the GCRMA method (robust multi-array analysis). It is implemented in Bioconductor (http://www.bioconductor.org/). The raw signal intensity data were normalized, background corrected and summarized based on certain statistical models, and an expression value, in log 2-scale, is obtained per chip per probe set. Then the null hypothesis was tested that there's no significant changes in gene expression between the treatment pairs. This was done by LIMMA and is also implemented in Bioconductor. It uses empirical Bayes method to estimate the variance in gene expression. One comparison was made, namely, High Grade vs. Low Grade. The raw p-values were adjusted by the Benjamnin-Hochberg method for false discovery rate (FDR) control. All data sets contained a significant number of genes with a p-value less than 0.05, which is that the probability that a gene is NOT differential expressed (false positive) is 1:20.

[2] = test system: integrin expression in ES2 cells; assay: Microarray gene expression, Table 6
Protocol: as §1, §2, §3, §4, §5, §6

[3] = test system: potassium channel, subfamily U, protein expression in ES2 cells; assay: Microarray gene expression, Table 18; conditions: probe 237273_at
Protocol: as §1, §2, §3
(§7) RNA extraction, labeling, hybridization, and data analysis. RNA was extracted from tumor cells using the Qiagen RNeasy Kit. RNA quality and quantity was checked by the Agilent BioAnalyzer and the NanoDrop® ND-1000 spectrophotometer respectively before further manipulation. […] The images were analyzed and quality control metrics recorded using Affymetrix GCOS software version 1.4. Lastly, the expression value for each gene was calculated using dChip PM-only model based or Plier algorithm.
(§8) Pairwise comparisons were made as follows: Treated vs. Control (Y vs. D), Modified Drug vs Control (YM/ACY-H vs. D) and Treated vs. Modified Drug (Y vs. YM/ACH-Y) Cel files analyzed using the Bioconductor package of R Statistical programming. […]

[4] = test system: cadherins expression in ES2 cells; assay: Microarray gene expression, Table 8
Protocol: as §1, §2, §3, §4, §5, §6

[5] = test system: tenascin-C expression in ES2 cells; assay: Microarray gene expression, Table 9; conditions: probe 201645_at
Protocol: as §1, §2, §3, §7, §8

C/C=C(/C)C(=O)O[C@H]1[C@H](OC(=O)/C(C)=C\C)[C@@]2(CO)C(CC1(C)C)C1=CCC3[C@@]4(C)CC[C@H](O[C@@H]5OC(C(=O)O)[C@@H](O)C(O[C@@H]6O[C@@H](CO)C(O)C6O)C5O[C@@H]5OC(CO)[C@H](O)C(O)C5O)C(C)(C)C4CC[C@@]3(C)[C@]1(C)[C@@H](O)[C@H]2O (stereo partly drawn) [Xanifolia-Y, 3-O-[β-D-galactopyranosyl (1→2)]-α-L-arabinofuranosy (1→3)-β-D-glucuronopyranosyl-21,22-O-diangeloyl-3β, 15α, 16α, 21β, 22α, 28-hexahydroxyolean-12-ene]
COL6A1 collagen, type VI, alpha 1, gene expression ratio to no drug control (D) ([1]; probe 212091_s_at): −1.6 folds
COL5A1 collagen, type V, alpha 1, gene expression ratio to no drug control (D) ([1]; probe 212489_at): −1.5 folds
COL4A5 collagen, type IV, alpha 5 (Alport syndrome), gene expression ratio to no drug control (D) ([1]; probe 213110_s_at): −1.6 folds
COL6A2 collagen, type VI, alpha 2, gene expression ratio to no drug control (D) ([1]; probe 213290_at): −1.6 folds
COL4A6 collagen, type IV, alpha 6, gene expression ratio to no drug control (D) ([1]; probe 213992_at): −2.0 folds
COL10A1 collagen, type X, alpha 1, gene expression ratio to no drug control (D) ([1]; probe 217428_s_at): −3.0 folds
COL5A2 collagen, type V, alpha 2, gene expression ratio to no drug control (D) ([1]; probe 221729_at): −1.3 folds
COL5A2 collagen, type V, alpha 2, gene expression ratio to no drug control (D) ([1]; probe 221730_at): −1.6 folds
COL12A1 collagen, type XII, alpha 1, gene expression ratio to no drug control (D) ([1]; probe 231766_s_at): −2.8 folds
CCBE1 collagen and calcium binding EGF domains 1, gene expression ratio to no drug control (D) ([1]; probe 242324_x_at): −1.3 folds
COL5A1 collagen, type V, alpha 1, gene expression ratio to no drug control (D) ([1]; probe 1556138_a_at): −2.2 folds
P4HA2 procollagen-proline, 2-oxoglutarate 4-dioxygenase, alpha polypeptide II, gene expression ratio to no drug control (D) ([1]; probe 1568611_at): −1.3 folds
expression ratio to the control, collagen ([1]; span over probes of Table 5): −1.3 to −3.0 folds
ITGA3 integrin, alpha 3, gene expression ratio to no drug control (D) ([2]; probe 201474_s_at): −1.6 folds
ITGA6 integrin, alpha 6, gene expression ratio to no drug control (D) ([2]; probe 201656_at): −1.5 folds
ITGAV integrin, alpha V (vitronectin receptor), gene expression ratio to no drug control (D) ([2]; probe 202351_at): −1.8 folds
ITGBL1 Integrin, beta-like 1, gene expression ratio to no drug control (D) ([2]; probe 205422_s_at): −1.9 folds
ITGA4 integrin, alpha 4, gene expression ratio to no drug control (D) ([2]; probe 205884_at): −1.6 folds
ITGA4 integrin, alpha 4, gene expression ratio to no drug control (D) ([2]; probe 205885_s_at): −1.7 folds
ITGA4 integrin, alpha 4, gene expression ratio to no drug control (D) ([2]; probe 213416_at): −1.6 folds
ITGB5 Integrin, beta 5, gene expression ratio to no drug control (D) ([2]; probe 214021_x_at): −1.5 folds
ITGBL1 Integrin, beta-like 1, gene expression ratio to no drug control (D) ([2]; probe 214927_at): −1.7 folds
ITGA6 integrin, alpha 6, gene expression ratio to no drug control (D) ([2]; probe 215177_s_at): −1.6 folds
CD47 antigen (integrin-associated signal transducer), gene expression ratio to no drug control (D) ([2]; probe 227259_at): −1.6 folds
ITGB2 integrin, beta 2, gene expression ratio to no drug control (D) ([2]; probe 1555349_a_at): −1.6 folds
ITGBL1 Integrin, beta-like 1, gene expression ratio to no drug control (D) ([2]; probe 1557080_s_at): −1.7 folds
expression ratio to the control, integrin family ([2]; span over probes of Table 6): −1.5 to −1.9 folds
KCNU1 potassium channel, subfamily U, member 1, gene expression ratio to no drug control (D) [3]: −4.0 folds
CTNNB1 catenin (cadherin-associated protein), beta 1, 88 kDa, gene expression ratio to no drug control (D) ([4]; probe 201533_at): −1.5 folds
CTNNAL1 catenin (cadherin-associated protein), alpha-like 1, gene expression ratio to no drug control (D) ([4]; probe 202468_s_at): −1.9 folds
CDH2 cadherin 2, type 1, N-cadherin (neuronal), gene expression ratio to no drug control (D) ([4]; probe 203440_at): −1.4 folds
CDH5 cadherin 5, type 2, VE-cadherin, gene expression ratio to no drug control (D) ([4]; probe 204677_at): −1.5 folds
CDH13 cadherin 13, H-cadherin (heart), gene expression ratio to no drug control (D) ([4]; probe 204726_at): −1.8 folds
CDH12 cadherin 12, type 2 (N-cadherin 2), gene expression ratio to no drug control (D) ([4]; probe 207149_at): −1.7 folds
CTNND1 catenin (cadherin-associated, protein), delta 1, gene expression ratio to no drug control (D) ([4]; probe 208407_s_at): −1.5 folds
CTNNA1 catenin (cadherin-associated protein), alpha 1, 102 kDa, gene expression ratio to no drug control (D) ([4]; probe 210844_x_at): −1.4 folds
CDH13 cadherin 13, H-cadherin (heart), gene expression ratio to no drug control (D) ([4]; probe 244091_at): −2.0 folds
TNC Tenascin C (hexabrachion), gene expression ratio to no drug control (D) [5]: −3.2 folds
